Columns and labels:
Format in all cases: cell-based, human
Target C [1] = test: HiBiT protein abundance assay, Target C; details: Homo sapiens, K562, 24 h, Table 13A, modified K562 cells
Method in brief: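 HiBiT knock-in K562-derived cells, 10000 cells/well, were treated 24 h at 37 °C with a 10-point 3-fold dilution series (top 10 μM final, DMSO ≤0.25%). Lytic HiBiT luminescence was normalized to unmodified K562 and DMSO controls; IC50 was interpolated at 50% from a four-parameter logistic fit.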

HTT [2] = test: HiBiT protein abundance assay, HTT; details: Homo sapiens, K562, 24 h, Table 13A, modified K562 cells
Method in brief: (§1)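 K562 cells with endogenous HiBiT-tagged target were treated 24 h at 37 °C with compound (10-point 3-fold dilution, top 10 μM final, DMSO ≤0.25%). Lytic LgBiT luminescence was normalized to unmodified K562 (baseline) and DMSO-treated tagged cells; IC50 interpolated at 50% from four-parameter logistic fit.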

Target C [3] = test: Splicing RT-qPCR panel, Target C canonical junction (CJ) mRNA; details: Homo sapiens, RT-qPCR panel, canonical junction mRNA; compound concentration having 50% response in CJ decrease; read-out: Target C IC50 (decrease in CJ mRNA levels)
Method in brief: (§2)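 A673 or K562 cells treated 24 h at 37 °C with 11-point 3-fold dilutions, top 10 uM, DMSO ≤0.25%. Lysates read by RT-qPCR for CJ and AJ isoforms, normalized to GAPDH, GUSB or PPIA; ΔΔCt vs DMSO converted to RQ, then percent response.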

MYB [4] = test: Splicing RT-qPCR assay, MYB mRNA canonical junction (CJ) and alternative junction (AJ); details: Homo sapiens; for AC50: increase in AJ mRNA
Method in brief: as §2

SMN2 = test: Splicing RT-qPCR panel, SMN2 canonical junction (CJ) mRNA; details: Homo sapiens, RT-qPCR panel, canonical junction mRNA; compound concentration having 50% response in CJ decrease; read-out: SMN2 IC50 (decrease in CJ mRNA levels)
Method in brief: as §2

HTT [5] = test: Splicing RT-qPCR assay, HTT mRNA canonical junction (CJ) and alternative junction (AJ); details: Homo sapiens; for AC50: increase in AJ mRNA
Method in brief: as §2

MYB [6] = test: HiBiT protein abundance assay, MYB; details: Homo sapiens, K562, 24 h, Table 13A, modified K562 cells
Method in brief: as §1

[7] = 24 h, decrease in CJ mRNA, A673 or K562 cells, 24 hours treatment, RT-qPCR, read-out: MYB CJ IC50
[8] = 24 h, A673 or K562 cells, 24 hours treatment, RT-qPCR
[9] = RT-qPCR panel, canonical junction mRNA, compound concentration having 50% response in CJ decrease, read-out: MYB IC50 (decrease in CJ mRNA levels)
[10] = 24 h, decrease in CJ mRNA, A673 or K562 cells, 24 hours treatment, RT-qPCR, read-out: HTT CJ IC50
[11] = RT-qPCR panel, canonical junction mRNA, compound concentration having 50% response in CJ decrease, read-out: HTT IC50 (decrease in CJ mRNA levels)

Row | IC50 (HTT [5]; [10]) | SMILES | IC50 (Target C [1]) | IC50 (HTT [2]) | IC50 (Target C [3]) | IC50 (MYB [4]; [7]) | AC50 (MYB [4]; [8]) | IC50 (MYB [4]; [9]) | IC50 (SMN2) | AC50 (HTT [5]; [8]) | IC50 (HTT [5]; [11]) | IC50 (MYB [6])
1 | 100 to 1000 nM | c1nc2c(-c3cn[nH]c3)ccc(-c3cnc(N4CCNC(C5CC5)C4)nn3)c2s1 (stereo not drawn) [Compound 414] | 100 to 1000 nM | 100 to 1000 nM | 1000 to 10000 nM | 1000 to 10000 nM | > 10000 nM | 1000 to 10000 nM | 1000 to 10000 nM | 100 to 1000 nM | 100 to 1000 nM | 1000 to 10000 nM
2 | 1000 to 10000 nM | c1nc2c(-c3cn[nH]c3)ccc(-c3cnc(N4CCC(NC5CC5)C4)nn3)c2s1 (stereo not drawn) [Compound 416, N-cyclopropyl-1-[6-[4-(1H-pyrazol-4-yl)-1,3-benzothiazol-7-yl]-1,2,4-triazin-3-yl]py-rrolidin-3-amine] | 1000 to 10000 nM | 1000 to 10000 nM | > 10000 nM | 1000 to 10000 nM | > 10000 nM | 1000 to 10000 nM | 1000 to 10000 nM | 1000 to 10000 nM | 1000 to 10000 nM | 1000 to 10000 nM
3 | 1000 to 10000 nM | c1nc2c(-c3cn[nH]c3)ccc(-c3ccc(N4CCNC(C5CC5)C4)nn3)c2s1 (stereo not drawn) [Compound 417] | 1000 to 10000 nM | 100 to 1000 nM | > 10000 nM | 1000 to 10000 nM | 1000 to 10000 nM | 1000 to 10000 nM | 100 to 1000 nM | > 10000 nM | 1000 to 10000 nM | > 10000 nM
4 | – | CN(c1ncc(-c2ccc(-c3cn[nH]c3)c3ncsc23)nn1)[C@@H]1C[C@H]2CC[C@@H](C1)N2 [Compound 420] | < 100 nM | < 100 nM | 100 to 1000 nM | 100 to 1000 nM | 100 to 1000 nM | 100 to 1000 nM | 100 to 1000 nM | < 100 nM | < 100 nM | 100 to 1000 nM
5 | – | CN(c1ncc(-c2ccc(-c3cn[nH]c3)c3ncsc23)nn1)C1C[C@H]2CCC[C@H](C1)N2 (stereo partly drawn) [Compound 421] | < 100 nM | < 100 nM | < 100 nM | 100 to 1000 nM | 100 to 1000 nM | 100 to 1000 nM | < 100 nM | < 100 nM | < 100 nM | 100 to 1000 nM
6 | – | c1nc2c(-c3cn[nH]c3)ccc(-c3cnc(N[C@@H]4C[C@H]5CC[C@@H](C4)N5)nn3)c2s1 [Compound 422] | 100 to 1000 nM | 100 to 1000 nM | 100 to 1000 nM | 100 to 1000 nM | 1000 to 10000 nM | 100 to 1000 nM | 100 to 1000 nM | 100 to 1000 nM | < 100 nM | 100 to 1000 nM
7 | – | CN(c1ncc(-c2ccc(-c3cn[nH]c3)c3ncsc23)nn1)[C@H]1C[C@]2(C)CC[C@](C)(C1)N2 [Compound 424, (1S,5R)—N,1,5-trimethyl-N-[6-[4-(1H-pyrazol-4-yl)-1,3-benzothiazol-7-yl]-1,2,4-triazin-3-yl]-8-azabicyclo [3.2.1] octan-3-amine] | < 100 nM | < 100 nM | < 100 nM | 100 to 1000 nM | 100 to 1000 nM | 100 to 1000 nM | 100 to 1000 nM | < 100 nM | < 100 nM | 100 to 1000 nM
8 | – | CN(c1ncc(-c2ccc(-c3cn[nH]c3)c3ncsc23)nn1)C1CC2CCC(C1)N2 (stereo not drawn) [Compound 443] | < 100 nM | < 100 nM | 100 to 1000 nM | – | – | 1000 to 10000 nM | 100 to 1000 nM | – | < 100 nM | 100 to 1000 nM
9 | – | CN(c1ncc(-c2ccc(-c3cn[nH]c3)c3ncsc23)nn1)[C@@H]1C[C@H]2CCC[C@@H](C1)N2 [Compound 449, (1S,5R)—N-methyl-N-[6-[4-(1H-pyrazol-4-yl)-1,3-benzothiazol-7-yl]-1,2,4-triazin-3-yl]-9-azabicyclo[3.3.1]nonan-3-amine] | < 100 nM | < 100 nM | < 100 nM | – | – | 100 to 1000 nM | < 100 nM | – | < 100 nM | 100 to 1000 nM
10 | – | c1nc2c(-c3cn[nH]c3)ccc(-c3cnc(N4CCN[C@H](C5CC5)C4)nn3)c2s1 [Compound 451] | 1000 to 10000 nM | 1000 to 10000 nM | 1000 to 10000 nM | – | – | 1000 to 10000 nM | 1000 to 10000 nM | – | 1000 to 10000 nM | 1000 to 10000 nM

Row | SMILES | IC50 (HTT [5]; [10]) | IC50 (Target C [1]) | IC50 (HTT [2]) | IC50 (Target C [3]) | IC50 (MYB [4]; [7]) | AC50 (MYB [4]; [8]) | IC50 (MYB [4]; [9]) | IC50 (SMN2) | AC50 (HTT [5]; [8]) | IC50 (HTT [5]; [11]) | IC50 (MYB [6])
11 | CN(c1ncc(-c2ccc(-c3cn[nH]c3)c3ncsc23)nn1)[C@@H]1C[C@]2(C)CC[C@](C)(C1)N2 [Compound 425, (1S,5R)—N,1,5-trimethyl-N-[6-[4-(1H-pyrazol-4-yl)-1,3-benzothiazol-7-yl]-1,2,4-triazin-3-yl]-8-azabicyclo [3.2.1] octan-3-amine] | 100 to 1000 nM | 100 to 1000 nM | 100 to 1000 nM | 100 to 1000 nM | 1000 to 10000 nM | > 10000 nM | 1000 to 10000 nM | 1000 to 10000 nM | 100 to 1000 nM | 100 to 1000 nM | 1000 to 10000 nM
